These results are taken from article PMC8544286, “Screening and Identification of a Novel Anti-tuberculosis Compound That Targets Deoxyuridine 5′-Triphosphate Nucleotidohydrolase” (Frontiers in Microbiology, 2021).

SMILES strings stand for the structures. Values after ≈ are worked out from the molar mass of the structure shown. Read-outs that look alike come from different tables or passages of the source.

The target in data set [1] is T1, human dUTPase (Homo sapiens, UniProt P33316). The data set is described as follows: biochemical.
For data set [2], the system named is M. tuberculosis standard strain H37Rv. Description: Microplate alamar blue assay (MABA), H37Rv. The class given is cell-based. Particulars: Mycobacterium tuberculosis, 168 h. On the technique in general: Alamar Blue is a resazurin reagent that responds to reducing activity.
For data set [3], the system named is sensitive strain STB-FJ05349. Description: Microplate alamar blue assay (MABA), STB-FJ05349. The class given is cell-based. Particulars: Mycobacterium tuberculosis, STBFJ05349, 168 h.
Data set [4] concerns sensitive strain STB-FJ05060. Description: Microplate alamar blue assay (MABA), STB-FJ05060. Particulars: Mycobacterium tuberculosis, STBFJ05060, 168 h. The class given is cell-based.
The target of data set [5] is T1, human dUTPase. The data set is described as follows: Surface plasmon resonance (SPR), human dUTPase. The class given is binding. Particulars: human dUTPase on CM5 chip. (In SPR one partner is held on a chip, and binding of the other changes the refractive index at the surface.)
A short description of the next data set: in vitro. The class given is cell-based. As to conditions: 24 h, CCK-8. The protocol: MRC-5, Vero E6, and Caco-2 cells were tested. […] Meanwhile, 2% DMSO was used as a negative control. After incubation for 24 h, 2-(2-methoxy-4-nitrophenyl)-3-(4-nitrophenyl)-5-(2,4-disulfophenyl)-2H-tetrazolium, monosodium salt (WST-8) was added. The experimental method referred to the kit instructions. All the experiments were repeated three times.

In data set [6] the target is M. tuberculosis dUTPase (Mt-dUTPase) (Mycobacterium tuberculosis, UniProt P9WNS5). The data set is classed as biochemical.
[7] abbreviates: H37Rv, MABA, 7 days at 37°C, read-out: MIC.
[8] abbreviates: STB-FJ05349, MABA, 7 days at 37°C, read-out: MIC.
Where [9] appears, read: STB-FJ05060, MABA, 7 days at 37°C, read-out: MIC.

T1 sequence (P33316 other isoform, or with tags, fused parts or gaps): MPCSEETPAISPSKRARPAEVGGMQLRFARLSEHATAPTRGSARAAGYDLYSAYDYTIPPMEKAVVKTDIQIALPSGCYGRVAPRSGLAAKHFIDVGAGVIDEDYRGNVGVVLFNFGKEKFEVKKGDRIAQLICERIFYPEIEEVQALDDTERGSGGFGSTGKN
Chain of M. tuberculosis dUTPase (Mt-dUTPase) (P9WNS5 whole entry): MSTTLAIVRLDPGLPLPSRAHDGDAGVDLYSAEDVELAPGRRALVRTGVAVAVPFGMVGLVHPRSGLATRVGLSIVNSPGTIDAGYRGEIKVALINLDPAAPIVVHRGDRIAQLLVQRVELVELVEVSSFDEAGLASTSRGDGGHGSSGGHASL

Take `C=CCn1c(/C=C/c2ccccc2)nc2ccccc21` [F0414]: the concentration for half-maximal inhibition (IC50) (as a rule, the midpoint of a concentration-inhibition curve) on human dUTPase [1] (luminescence readout) was 3.18 ± 0.96 µM; at human dUTPase [1] (same IC50 printed in μg/mL) it was 3.19 µM. Moreover, the MIC in data set [2] (setting [7]), in data set [3] (setting [8]) and in data set [4] (setting [9]) was 4 µg/mL (≈ 15.4 µM) in each case. Moreover, the “SPR binding to human dUTPase” value on human dUTPase [5] is given as “almost no RU signals”. The half-maximal cytotoxic concentration (CC50) (as a rule, the concentration giving 50% cytotoxicity) in the data set “in vitro” (African green monkey, Vero E6 cells) is above 200 µM; in “in vitro” (African green monkey, Vero E6 cells, approximate conversion of >200 μM) it was above 52 µg/mL; in the data set “in vitro” (human, Caco2 cells) it was above 200 µM; in the data set “in vitro” (human, Caco2 cells, approximate conversion of >200 μM), above 52 µg/mL; in the data set “in vitro” (human, MRC-5 cells) it was above 200 µM; in “in vitro” (human, MRC-5 cells, approximate conversion of >200 μM) it was above 52 µg/mL.
On to `NNC(=O)c1ccncc1` [Isoniazid], for which the MIC – broadly, the smallest concentration in the dilution series that meets the test's criterion for growth inhibition – was determined as 0.25 µg/mL (≈ 1.82 µM) in data set [2] (setting [7]), 0.5 µg/mL (≈ 3.65 µM) in data set [3] (setting [8]) and 0.5 µg/mL (≈ 3.65 µM) in data set [4] (setting [9]).
`CO[C@H]1/C=C/O[C@@]2(C)Oc3c(C)c(O)c4c(O)c(c(/C=N/N5CCN(C)CC5)c(O)c4c3C2=O)NC(=O)/C(C)=C\C=C\[C@H](C)[C@H](O)[C@@H](C)[C@@H](O)[C@@H](C)[C@H](OC(C)=O)[C@@H]1C` [Rifampicin]: the minimum inhibitory concentration (MIC) stood at 0.25 µg/mL (≈ 0.304 µM) in data set [2] (H37RV), 0.5 µg/mL (≈ 0.608 µM) in data set [3] and 0.5 µg/mL (≈ 0.608 µM) in data set [4].
As for `O=c1ccn([C@H]2C[C@H](O)[C@@H](COC(c3ccccc3)(c3ccccc3)c3ccccc3)O2)c(=O)[nH]1` [Trt-dU], in data set [6] (compound pre-incubated with enzyme 1 h at room temperature, luminescence readout), the midpoint of inhibition, the IC50, lay at 1.04 ± 0.08 µM. For the same compound, the “IC50 (Mt-dUTPase)” value in data set [6] (same IC50 printed in μg/ml) is 0.49 ± 0.02 µg/mL (≈ 1.04 µM).
